Results on one compound are retold here after US20060165683A1, “Methods and compositions for control of bone formation via modulation of sympathetic tone” (priority 2001, published 2006).

The structures appear in SMILES notation.

The subject of one data set is primary osteoblasts. The data set can be described thus: Gene expression and apoptosis in primary osteoblasts. Type of data set: cell-based, mouse. To be noted: primary osteoblasts, isoproterenol plus propranolol. The protocol:
(§1) Primary osteoblast cultures were established as previously described (see, e.g., Ducy et al., 2000, Cell 100: 197-207) and maintained in αMEM/0.1 mg/ml ascorbic acid supplemented with 10% FBS. SaOS-2 were grown in MEM/10% FBS. For cAMP assay confluent cultures were incubated with serum free medium containing 100 μM IBMX (3-isobutyl-1-methylxanthine, Sigma) for 8 minutes before PBS, PTH(1-34) (Bachem), isoproterenol, norepinephrine, phenylephrine (Sigma) or propranolol were added for 5 min. Intracellular cAMP concentration was measured by immunoassay (R&D Systems). For gene expression analyses, primary osteoblasts were treated for 72 hours with appropriate drugs in 0.1% FBS. Hormone serum levels were quantified using immunoassays kits from Peninsula Laboratories (Insulin) or Alpco Diagnostics (leptin). Deoxypyridinoline cross-links and Creatinine were measured in morning urines using the Quidel kits. a1(I) leptin bioactivity was verified by cotransfection of 293 cells expressing ObRb with a STAT3-responsive-luc reporter construct, pSVβgal plasmid and a1(I) leptin expression vector or mock. Twenty-four hours later luciferase and β-galactosidase activities were measured. Data represents ratios of luciferase/β-galactosidase activities, and values are mean of 6 independent transfection experiments.
To elucidate the bases of the antiosteogenic effect of isoproterenol in vivo, osteoblast proliferation, gene expression and apoptosis were studied.

In another data set the test system is wt mice. As to the kind of experiment: Propranolol treatment of wt mice. Type of data set: in vivo, mouse. How it is done:
(§2) Wildtype (C57BL/6J) and mutant (C57BL/6J A^y/a, C57BL/6J ob/ob) mice were obtained from the Jackson laboratory and adrenal medullectomized mice from Harlan Tecklad laboratory. Dbh−/− mice were rescued as previously described (Thomas et al., 1998, Neurochem 70:2468-2476). Isoproterenol (Sigma) was injected intraperitoneally (ip) once daily for 6 weeks at 30 mg/kg (wt) or 3 mg/kg (ob/ob). Propranolol (Sigma) was added to the drinking water at a concentration of 0.5 g/l. For ICV infusion, a 28-gauge cannula (Brain infusion kit II, Alza) was implanted into the third ventricle as previously described infusing human leptin (Sigma) at 8 ng/hr or MT-II at 125 ng/hr (Phoenix Pharmaceuticals) for 28 days (see, e.g., Ducy et al., 2000, Cell 100: 197-207). The cannula was connected to an osmotic pump (Alza) placed in the dorsal subcutaneous space of the animal. For parabiosis longitudinal incisions were made in the skin and in the peritoneal cavity along one side on each mouse. Edges of the incisions were connected by suture to induce coelioanastomosis. Cross-circulation was quantified by injecting 1 ml/kg 0.25% Evans blue into the tail vein of one mouse of the parabiosed pair. After 30 min. blood was collected from both mice by retroorbital bleeding and the blood exchange rate was calculated according to standard techniques (see, e.g., Harris & Martin, 1984, Am J Physiol 247:R380-386). […] Two weeks after parabiosis a pump delivering leptin ICV in one animal of each pair was implanted. For GTG lesioning, 4-week-old C57BL/6J mice were given a single ip injection of either PBS or GTG (0.5 mg/g). For MSG lesioning, 2 day-old C57BL/6J pups were injected daily subcutaneously with either PBS or MSG (2 mg/g) for 10 days.
Histological analyses were performed on undecalcified sections stained by von Kossa and counterstained by von Gieson (see, e.g., Ducy et al., 2000, Cell 100:197-207). Static and dynamic histomorphometric analyses were performed according to standard protocols (see, e.g., Parfitt et al., 1987, J Bone Miner Res 6:595-610) using the Osteomeasure Analysis System (Osteometrics, Atlanta). Six to 12 animals were analyzed for each group. Statistical significance was assessed by Student's t test.
as §1
The most important biomedical requirement for regulation of bone formation by the SNS is that β-adrenergic antagonists (β blockers) should increase bone mass by increasing bone formation. To address this point, wt mice were treated for 5 weeks with propranolol (0.4 mg/day). […] In some propranolol-treated mice the bone volume matched what is observed in ob/ob mice. […]

Data set [1] has as its system murine primary osteoblasts. As to the kind of experiment: cAMP production in murine primary osteoblasts. In kind it is cell-based, mouse. As to conditions: added with isoproterenol or norepinephrine. The protocol:
as §1
For a sympathetic regulation of bone formation to exist several requirements have to be fulfilled. The first one is that functional adrenergic receptors are present on osteoblasts. […] Immunohistochemical analysis of long bones from transgenic mice expressing LacZ under the control of the osteoblast-specific fragment of the a1(I) collagen promoter verified the presence of β2-adrenergic receptors on osteoblasts (FIG. 13B). No other adrenergic receptor subtype could be detected. […] Electron micrographs confirmed the presence of unmyelinated peripheral nerve axons coursing through the marrow adjacent to bone trabeculae and to osteoblasts (FIG. 13E). β-adrenergic receptors are G-coupled receptors that signal through the cAMP pathway (see, e.g., Benovic et al., 1988, Annu Rev Cell Biol 4:405-428). Thus, to assess the biologic relevance of the presence of β2-adrenergic receptors on osteoblasts, these cells were treated with isoproterenol, a β-adrenergic agonist, alone or in the presence of propranolol, a β-adrenergic receptor antagonist; with norepinephrine, the natural ligand of β-adrenergic receptors; with phenylephrine, an α-adrenergic agonist or with vehicle and measured cAMP production. As a positive control, parathyroid hormone (PTH) that binds to another G-coupled receptor present in osteoblasts was used (Gardella & Juppner, 2001, Trends Endocrinol Metab 12:210-217.). […] These effects were abolished by propranolol treatment. […]

The test system of data set [2] is human SaOS-2 osteoblastic cells. The data set can be described thus: cAMP production in human SaOS-2 osteoblastic cells. Type of data set: cell-based. To be noted: SaOS-2, added to β-adrenergic receptor agonists. How it is done:
as §1
For a sympathetic regulation of bone formation to exist several requirements have to be fulfilled. The first one is that functional adrenergic receptors are present on osteoblasts. […] No other adrenergic receptor subtype could be detected. […] Thus, to assess the biologic relevance of the presence of β2-adrenergic receptors on osteoblasts, these cells were treated with isoproterenol, a β-adrenergic agonist, alone or in the presence of propranolol, a β-adrenergic receptor antagonist; with norepinephrine, the natural ligand of β-adrenergic receptors; with phenylephrine, an α-adrenergic agonist or with vehicle and measured cAMP production. […]

The next data set relates to rats. As to conditions: rats treated with propranolol; cited from earlier work.
Another data set relates to ovariectomized wt mice. As to the kind of experiment: Propranolol treatment of ovariectomized wt mice. Type of data set: in vivo, mouse. The protocol: as §2
To test if it was the case ovariectomy in 6 week-old wt mice was performed and the mice were treated for 7 weeks with propranolol or vehicle. Estrogen depletion by ovariectomy decreased bone mass in vehicle-treated mice. […] This latter result underscores the physiologic and therapeutic importance of the sympathetic regulation of bone formation.

Take `CC(C)NCC(O)COc1cccc2ccccc12` (stereo not shown) [propranolol]: the “inhibitory effect of isoproterenol on gene expression” value in the data set on primary osteoblasts was “reversed”. Also, in the data set on wt mice (Wild-type + propranolol), the “Bone Volume” value is listed as “High”. For the same compound, the “hyperinsulinism or other hormonal modifications” value with wt mice (wt mice) is on record as “did not cause”. Besides, in the data set on wt mice (wt mice, 5 weeks, 0.4 mg/day), the “body weight and fat pad weight” value was “remained normal”; the bone formation rate entry is on record as “increase”; the number of osteoblasts entry is recorded as “increase”. In addition, in the data set on wt mice (wt mice, 5 weeks, 0.4 mg/day (drinking water 0.5 g/l)), the “bone mass in vertebrae and long bones” value is listed as “significant increase”. Further, the “effect on agonist-induced cAMP production” value in data set [1] is recorded as “abolished”. Further, the “effect on agonist-induced cAMP production” value in data set [2] was “inhibited”. Moreover, the “femoral metaphyseal mineral apposition rates” value in the data set on rats was “Increased”. In the data set with ovariectomized wt mice (ovariectomized mice, 7 weeks), the “bone formation rate vs control ovariectomized mice” value is listed as “striking increase” and the “osteoblast number vs control ovariectomized mice” value is “striking increase”. The bone mass entry in the data set on ovariectomized wt mice (ovariectomy at 6 weeks of age, treated for 7 weeks) is recorded as “normal”.
